Experimental data as given in patent US20100041089A1, “IMPROVED METHOD FOR DETECTING CHEMICAL […]” (priority 2006, published 2010).

Tested on: yeast genes (expressed mRNA)
Assay: DNA chip measurement of expressed mRNA of yeast genes after culture with a toxic chemical substance
Type: cell-based, Saccharomyces cerevisiae S288C
Conditions: for level of expressed mRNA in the presence of chemical substance / level in the absence of chemical substance: cultured two hours with the chemical substance; for The level of expressed mRNA in the presence of chemical substance/The level of expressed mRNA in the absence of chemical substance: cultured two hours with substance
How it was run: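 Expression is given as treated/untreated fluorescence ratio on a whole-genome yeast DNA chip, a ratio of two or more being significant. Log-phase S288C cultures in YPD at 25 °C received the chemical for 2 h at a dose that slows growth without killing. mRNA was reverse-transcribed with Cy3- or Cy5-dUTP.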

Na2As [(1)]
level of expressed mRNA in the presence of chemical substance / level in the absence of chemical substance (yeast gene YDR133C): 0.9
level of expressed mRNA in the presence of chemical substance / level in the absence of chemical substance (yeast gene YDR250C): 1.9
level of expressed mRNA in the presence of chemical substance / level in the absence of chemical substance (yeast gene YDR278C): 1.0
level of expressed mRNA in the presence of chemical substance / level in the absence of chemical substance (yeast gene YDR281C): 2.1
The level of expressed mRNA in the presence of chemical substance/The level of expressed mRNA in the absence of chemical substance (yeast gene YDR330W): 0.8
level of expressed mRNA in the presence of chemical substance / level in the absence of chemical substance (yeast gene YDR366C): 0.9
The level of expressed mRNA in the presence of chemical substance/The level of expressed mRNA in the absence of chemical substance (yeast gene YDR411C): 0.9
The level of expressed mRNA in the presence of chemical substance/The level of expressed mRNA in the absence of chemical substance (yeast gene YDR511W): 1.3
The level of expressed mRNA in the presence of chemical substance/The level of expressed mRNA in the absence of chemical substance (yeast gene YDR545W): 0.6
The level of expressed mRNA in the presence of chemical substance/The level of expressed mRNA in the absence of chemical substance (yeast gene YEL001C): 1.0
The level of expressed mRNA in the presence of chemical substance/The level of expressed mRNA in the absence of chemical substance (yeast gene YER004W): 1.0
The level of expressed mRNA in the presence of chemical substance/The level of expressed mRNA in the absence of chemical substance (yeast gene YER035W): 1.4
The level of expressed mRNA in the presence of chemical substance/The level of expressed mRNA in the absence of chemical substance (yeast gene YER079W): 1.1
The level of expressed mRNA in the presence of chemical substance/The level of expressed mRNA in the absence of chemical substance (yeast gene YER106W): 1.3
The level of expressed mRNA in the presence of chemical substance/The level of expressed mRNA in the absence of chemical substance (yeast gene YER158C): 1.2
The level of expressed mRNA in the presence of chemical substance/The level of expressed mRNA in the absence of chemical substance (yeast gene YER163C): 1.1
The level of expressed mRNA in the presence of chemical substance/The level of expressed mRNA in the absence of chemical substance (yeast gene YER175C): 0.9
The level of expressed mRNA in the presence of chemical substance/The level of expressed mRNA in the absence of chemical substance (yeast gene YFL006W): 0.8
The level of expressed mRNA in the presence of chemical substance/The level of expressed mRNA in the absence of chemical substance (yeast gene YFL010C): 1.0
The level of expressed mRNA in the presence of chemical substance/The level of expressed mRNA in the absence of chemical substance (yeast gene YFL024C): 1.0
The level of expressed mRNA in the presence of chemical substance/The level of expressed mRNA in the absence of chemical substance (yeast gene YFL032W): 0.4
level of expressed mRNA in the presence of chemical substance / level in the absence of chemical substance (yeast gene YFR026C): 0.9
The level of expressed mRNA in the presence of chemical substance/The level of expressed mRNA in the absence of chemical substance (yeast gene YGL037C): 1.5
The level of expressed mRNA in the presence of chemical substance/The level of expressed mRNA in the absence of chemical substance (yeast gene YGL047W): 1.0
The level of expressed mRNA in the presence of chemical substance/The level of expressed mRNA in the absence of chemical substance (yeast gene YGL053W): 1.5
level of expressed mRNA in the presence of chemical substance / level in the absence of chemical substance (yeast gene YGL088W): 0.9
The level of expressed mRNA in the presence of chemical substance/The level of expressed mRNA in the absence of chemical substance (yeast gene YGL121C): 2.6
The level of expressed mRNA in the presence of chemical substance/The level of expressed mRNA in the absence of chemical substance (yeast gene YGL199C): 1.1
level of expressed mRNA in the presence of chemical substance / level in the absence of chemical substance (yeast gene YGR038W): 0.9
The level of expressed mRNA in the presence of chemical substance/The level of expressed mRNA in the absence of chemical substance (yeast gene YGR101W): 1.0
The level of expressed mRNA in the presence of chemical substance/The level of expressed mRNA in the absence of chemical substance (yeast gene YGR110W): 1.6
The level of expressed mRNA in the presence of chemical substance/The level of expressed mRNA in the absence of chemical substance (yeast gene YGR130C): 0.9
level of expressed mRNA in the presence of chemical substance / level in the absence of chemical substance (yeast gene YGR139W): 1.3
The level of expressed mRNA in the presence of chemical substance/The level of expressed mRNA in the absence of chemical substance (yeast gene YGR154C): 1.8
The level of expressed mRNA in the presence of chemical substance/The level of expressed mRNA in the absence of chemical substance (yeast gene YGR221C): 0.9
level of expressed mRNA in the presence of chemical substance / level in the absence of chemical substance (yeast gene YGR243W): 1.4
level of expressed mRNA in the presence of chemical substance / level in the absence of chemical substance (yeast gene YGR293C): 0.5
level of expressed mRNA in the presence of chemical substance / level in the absence of chemical substance (yeast gene YHL006C): 0.7
level of expressed mRNA in the presence of chemical substance / level in the absence of chemical substance (yeast gene YHR095W): 1.1
level of expressed mRNA in the presence of chemical substance / level in the absence of chemical substance (yeast gene YHR105W): 0.9
The level of expressed mRNA in the presence of chemical substance/The level of expressed mRNA in the absence of chemical substance (yeast gene YHR138C): 2.8
level of expressed mRNA in the presence of chemical substance / level in the absence of chemical substance (yeast gene YHR181W): 0.9
The level of expressed mRNA in the presence of chemical substance/The level of expressed mRNA in the absence of chemical substance (yeast gene YHR199C): 1.9
The level of expressed mRNA in the presence of chemical substance/The level of expressed mRNA in the absence of chemical substance (yeast gene YIL023C): 1.1
The level of expressed mRNA in the presence of chemical substance/The level of expressed mRNA in the absence of chemical substance (yeast gene YIL041W): 1.0
The level of expressed mRNA in the presence of chemical substance/The level of expressed mRNA in the absence of chemical substance (yeast gene YIL087C): 1.3
level of expressed mRNA in the presence of chemical substance / level in the absence of chemical substance (yeast gene YIL127C): 1.1
level of expressed mRNA in the presence of chemical substance / level in the absence of chemical substance (yeast gene YJL017W): 1.1
level of expressed mRNA in the presence of chemical substance / level in the absence of chemical substance (yeast gene YJL037W): 1.8
The level of expressed mRNA in the presence of chemical substance/The level of expressed mRNA in the absence of chemical substance (yeast gene YJL057C): 1.5
The level of expressed mRNA in the presence of chemical substance/The level of expressed mRNA in the absence of chemical substance (yeast gene YJL066C): 0.9
The level of expressed mRNA in the presence of chemical substance/The level of expressed mRNA in the absence of chemical substance (yeast gene YJL082W): 1.4
level of expressed mRNA in the presence of chemical substance / level in the absence of chemical substance (yeast gene YJL097W): 1.0
